Reference: patent publication US7981903B2, “2-[2-{phenylamino}-1H-pyrrolo[2,3-D]pyrimidin-4-yl)amino] benzamide derivatives as IGF-1R inhibitors for the treatment of cancer” (GlaxoSmithKline LLC, priority 2007, dated 2011)

What was measured:
Colo205 = test: Inhibition of cell proliferation (CellTiter-Glo or InCell analyzer), Colo205; format: cell-based; details: Homo sapiens, COLO 205, 72 h / 3 days, values given as IC50 category
Procedure: (§1) Cell proliferation was measured by either CellTiter-Glo (measures cellular ATP level as a surrogate for total cell number) or by InCell analyzer (counts number of nuclei as a measure of cell number).
(§2) For CellTiter-Glo assay, exponentially growing cell lines of different tumor origins, cultured in appropriate media containing 10% fetal bovine serum at 37° C. in a 5% CO2 incubator, were plated at low density (less than 2000cells/well) in 96-well plates. Twenty four hours post-plating, cells were treated with different concentrations of test compounds ranging from 30 uM to 1.5 nM. Several wells were left untreated as a control. Seventy two hours post-treatment, cell numbers were determined using 50-100 ul per well of CellTiter-Glo (Promega #G7573). Plates were incubated at 37° C. for 30 minutes and the chemiluminescent signal was read on the Victor V or Envison 2100 reader.
(§3) For InCell Analyser assay, various cell lines of different tumor origins were grown to 70-80% confluency in appropriate culture media containing 10% fetal bovine serum at 37° C. in a 5% CO2 incubator. On day −1, cells were seeded at 2 densities in 384-well plates and incubated at 37° C. overnight. Stock compound plates were prepared in advance which contained dimethyl sulfoxide (DMSO) alone and a 9-point half-log decreasing dose range of the compound in DMSO. The compound plates were stored at −80° C. and each plate was only thawed once and used. On day 0, the main assay plates received compound or DMSO via a sonic delivery system (ECHO). The highest final concentration of compound of the dose range in the culture plates was 10 uM. These plates were cultured at 37° C. for 3 days. […] On day 3, the compound treated plates were stained and fixed to measure proliferation, apoptosis, and mitotic index using an InCelL1000 analyser. A nuclear stain was used to identify cells in the wells. By counting the number of nuclei, the proliferation index of compound treated groups were calculated as a percentage relative to the DMSO control, which was set to 100%. The IC50 values were calculated using model 205 in ExcelFit.
(§4) IC50 (nM) values for compounds of select examples were categorized by relative inhibition of cell proliferation.

NCI-H929 = test: Inhibition of cell proliferation (CellTiter-Glo or InCell analyzer), NCI-H929; format: cell-based; details: Homo sapiens, 72 h / 3 days, values given as IC50 category
Procedure: as §1, §2, §3, §4

human IR (hIR) = molecular target: T1, human IR (hIR) (Homo sapiens, UniProt P06213); test: TR-FRET kinase assay of purified hIR; format: biochemical; details: activated hIR 0.5 nM, 10 μM ATP, values given as pIC50 category
T1 construct: containing amino acid residues 979-1382 of human IR; made in house; host or cells: Sf9 cells (baculovirus), same process as hIGF1R

ALK = ALK (Homo sapiens, UniProt Q9UM73); test: ALK enzyme assay (HTRF); format: biochemical; details: 0.25 nM ALK, 15.0 μM ATP, values given as pIC50 category
Outline: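 Isolated ALK phosphorylates a biotinylated tyrosine peptide, 120 min at 20° C; anti-phosphotyrosine Eu-cryptate/streptavidin-XL665 HTRF read after 60 min with EDTA-containing detection mix.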

human IGF1R (hIGF1R) = molecular target: T2, human IGF1R (hIGF1R) (Homo sapiens, UniProt P08069); test: TR-FRET kinase assay of purified hIGF1R; format: biochemical; details: activated hIGF1R 0.5 nM, 10 μM ATP, values given as pIC50 category, read-out: IGF-1R pIC50 (converted)
T2 construct: containing amino acid residues 957-1367 of human IGF1R; made in house; host or cells: Sf9 cells (baculovirus)

[1] = molecular target: T3, NIH-3T3 cells overexpressing human IR (Homo sapiens, UniProt P06213); test: IR cellular autophosphorylation (DELFIA); format: cell-based; details: 2 h compound, insulin 3 ug/ml for 15 minutes, IC50 category
T3 construct: expressed in transfected cells; host or cells: NIH-3T3 (mouse fibroblasts)
Procedure: NIH-3T3 cells overexpressing human IGF-1R or IR were plated in 96-well plates (10,000 cells/well) in culture media containing 10% fetal bovine serum and incubated at 37° C. in a 5% CO2 incubator. Twenty four hours post-plating, cells were treated with different concentrations of test compounds ranging from 30 uM to 1.5 nM. Two hours after compound addition, cells were stimulated with either human IGF-1 (30 ng/ml) or insulin (3 ug/ml) for 15 minutes. Cell lysates are analyzed for phosphorylated receptors using dissociation enhanced lanthanide fluor-immuno assay (DELFIA) with anti-IGF-1R (MAB391, R&D Systems, Minneapolis, Minn.) or anti-IRβ (sc-711, Santa Cruz Biotechnology, Santa Cruz, Calif.) capture antibody and europium-labeled anti-pTyr antibody (Eu-N1 PT66, Perkin Elmer, Waltham, Mass.) for detection. The fluorescence signal for cells treated with compounds was expressed as percent relative to 100% stimulation (IGF-1 or insulin stimulated signal).

[2] = molecular target: T4, NIH-3T3 cells overexpressing human IGF-1R (Homo sapiens, UniProt P08069); test: IGF-1R cellular autophosphorylation (DELFIA); format: cell-based
T4 construct: expressed in transfected cells; host or cells: NIH-3T3 (mouse fibroblasts)
Outline: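 Receptor autophosphorylation measured by DELFIA, capturing IGF-1R or IRβ and detecting with europium anti-pTyr, reported as percent of IGF-1- or insulin-stimulated signal. Compounds (30 uM to 1.5 nM) added 2 h before ligand, then 15 min stimulation (IGF-1 30 ng/ml or insulin 3 ug/ml).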

T1 sequence (P06213 979-1382): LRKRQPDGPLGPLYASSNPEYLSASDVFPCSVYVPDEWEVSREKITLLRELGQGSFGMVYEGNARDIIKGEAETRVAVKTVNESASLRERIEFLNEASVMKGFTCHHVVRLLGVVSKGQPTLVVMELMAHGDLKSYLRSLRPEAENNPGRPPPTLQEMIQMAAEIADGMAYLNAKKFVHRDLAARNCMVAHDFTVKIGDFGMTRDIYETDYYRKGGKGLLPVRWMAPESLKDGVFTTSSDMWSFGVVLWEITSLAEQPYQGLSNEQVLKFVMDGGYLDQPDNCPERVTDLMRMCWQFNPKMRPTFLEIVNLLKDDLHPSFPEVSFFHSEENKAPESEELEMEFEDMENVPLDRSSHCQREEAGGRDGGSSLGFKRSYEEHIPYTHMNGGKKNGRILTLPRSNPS
T3 sequence (P06213 28-1382): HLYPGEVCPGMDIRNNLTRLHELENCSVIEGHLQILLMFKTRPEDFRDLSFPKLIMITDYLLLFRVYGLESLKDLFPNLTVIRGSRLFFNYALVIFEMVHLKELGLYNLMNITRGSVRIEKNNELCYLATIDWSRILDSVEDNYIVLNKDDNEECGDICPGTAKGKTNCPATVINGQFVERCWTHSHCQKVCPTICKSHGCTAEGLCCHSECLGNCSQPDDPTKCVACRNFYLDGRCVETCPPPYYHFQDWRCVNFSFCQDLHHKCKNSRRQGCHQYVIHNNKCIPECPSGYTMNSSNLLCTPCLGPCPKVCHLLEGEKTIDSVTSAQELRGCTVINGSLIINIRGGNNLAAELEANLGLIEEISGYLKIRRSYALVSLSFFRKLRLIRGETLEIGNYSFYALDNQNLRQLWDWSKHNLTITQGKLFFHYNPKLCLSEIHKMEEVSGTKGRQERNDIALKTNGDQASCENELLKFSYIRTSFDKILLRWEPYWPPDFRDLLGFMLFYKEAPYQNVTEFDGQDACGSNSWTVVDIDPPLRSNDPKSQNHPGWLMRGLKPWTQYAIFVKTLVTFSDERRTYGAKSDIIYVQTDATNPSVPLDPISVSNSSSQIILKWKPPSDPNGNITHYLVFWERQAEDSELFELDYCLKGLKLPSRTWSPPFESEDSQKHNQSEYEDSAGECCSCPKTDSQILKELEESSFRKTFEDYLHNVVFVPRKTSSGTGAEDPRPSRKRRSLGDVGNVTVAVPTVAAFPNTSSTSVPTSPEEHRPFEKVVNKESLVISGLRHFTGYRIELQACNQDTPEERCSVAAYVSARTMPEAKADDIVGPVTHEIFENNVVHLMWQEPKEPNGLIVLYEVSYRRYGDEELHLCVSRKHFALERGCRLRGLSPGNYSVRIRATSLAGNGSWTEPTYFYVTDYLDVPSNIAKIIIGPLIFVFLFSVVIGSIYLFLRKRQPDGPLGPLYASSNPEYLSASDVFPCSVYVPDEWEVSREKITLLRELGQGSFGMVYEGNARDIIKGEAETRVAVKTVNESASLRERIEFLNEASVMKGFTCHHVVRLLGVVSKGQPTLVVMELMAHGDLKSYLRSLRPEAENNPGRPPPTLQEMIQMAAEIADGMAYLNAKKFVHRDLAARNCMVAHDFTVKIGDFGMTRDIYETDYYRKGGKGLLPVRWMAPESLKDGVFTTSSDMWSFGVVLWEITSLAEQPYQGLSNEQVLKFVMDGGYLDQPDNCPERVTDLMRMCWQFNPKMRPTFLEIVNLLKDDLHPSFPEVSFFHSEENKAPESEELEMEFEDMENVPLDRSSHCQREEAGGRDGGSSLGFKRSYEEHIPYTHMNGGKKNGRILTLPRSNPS
T2 sequence (P08069 957-1367): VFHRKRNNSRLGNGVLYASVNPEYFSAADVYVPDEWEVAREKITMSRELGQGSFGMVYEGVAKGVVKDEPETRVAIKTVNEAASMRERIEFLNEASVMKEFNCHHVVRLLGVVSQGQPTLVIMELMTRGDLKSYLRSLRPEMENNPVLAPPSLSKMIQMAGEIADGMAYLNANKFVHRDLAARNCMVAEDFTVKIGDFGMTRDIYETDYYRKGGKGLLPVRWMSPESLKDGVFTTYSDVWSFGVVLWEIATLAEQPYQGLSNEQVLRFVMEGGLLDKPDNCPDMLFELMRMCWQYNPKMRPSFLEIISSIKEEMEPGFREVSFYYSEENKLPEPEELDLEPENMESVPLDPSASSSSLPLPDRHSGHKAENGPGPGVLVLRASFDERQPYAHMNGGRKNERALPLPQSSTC
T4 sequence (P08069 31-1367): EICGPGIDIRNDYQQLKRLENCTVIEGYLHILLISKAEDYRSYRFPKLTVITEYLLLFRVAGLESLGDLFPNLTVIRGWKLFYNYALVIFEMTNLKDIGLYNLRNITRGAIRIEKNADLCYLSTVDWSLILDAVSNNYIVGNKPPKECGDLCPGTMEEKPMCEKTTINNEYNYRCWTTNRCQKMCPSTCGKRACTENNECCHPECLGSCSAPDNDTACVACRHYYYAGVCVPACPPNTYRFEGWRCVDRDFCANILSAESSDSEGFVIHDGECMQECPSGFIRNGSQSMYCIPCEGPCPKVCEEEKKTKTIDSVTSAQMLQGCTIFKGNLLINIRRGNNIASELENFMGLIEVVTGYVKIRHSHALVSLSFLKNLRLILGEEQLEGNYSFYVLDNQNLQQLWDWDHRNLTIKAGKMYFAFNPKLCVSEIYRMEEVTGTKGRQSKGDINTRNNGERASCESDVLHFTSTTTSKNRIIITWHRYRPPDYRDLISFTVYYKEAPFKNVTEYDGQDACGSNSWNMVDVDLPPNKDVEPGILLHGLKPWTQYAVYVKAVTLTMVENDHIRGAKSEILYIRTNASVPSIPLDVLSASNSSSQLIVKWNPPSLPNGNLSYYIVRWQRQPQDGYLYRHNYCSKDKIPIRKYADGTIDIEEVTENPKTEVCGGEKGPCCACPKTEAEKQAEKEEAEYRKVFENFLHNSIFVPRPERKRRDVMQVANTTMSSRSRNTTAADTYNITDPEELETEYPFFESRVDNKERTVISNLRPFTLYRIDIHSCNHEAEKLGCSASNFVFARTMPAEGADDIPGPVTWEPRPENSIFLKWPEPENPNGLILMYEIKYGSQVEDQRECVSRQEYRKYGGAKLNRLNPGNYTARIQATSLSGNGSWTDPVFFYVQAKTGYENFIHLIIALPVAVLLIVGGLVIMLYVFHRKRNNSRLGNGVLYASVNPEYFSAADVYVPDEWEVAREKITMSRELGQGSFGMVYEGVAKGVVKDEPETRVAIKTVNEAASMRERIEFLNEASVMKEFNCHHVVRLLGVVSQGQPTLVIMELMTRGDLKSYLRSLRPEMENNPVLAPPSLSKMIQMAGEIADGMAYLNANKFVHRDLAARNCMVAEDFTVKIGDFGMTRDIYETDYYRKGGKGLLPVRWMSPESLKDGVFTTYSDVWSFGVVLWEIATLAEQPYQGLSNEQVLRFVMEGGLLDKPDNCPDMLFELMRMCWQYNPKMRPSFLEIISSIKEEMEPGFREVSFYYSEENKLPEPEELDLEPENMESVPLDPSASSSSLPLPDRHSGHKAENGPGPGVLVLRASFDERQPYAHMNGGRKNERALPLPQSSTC
Chain of ALK (Q9UM73 19-1620): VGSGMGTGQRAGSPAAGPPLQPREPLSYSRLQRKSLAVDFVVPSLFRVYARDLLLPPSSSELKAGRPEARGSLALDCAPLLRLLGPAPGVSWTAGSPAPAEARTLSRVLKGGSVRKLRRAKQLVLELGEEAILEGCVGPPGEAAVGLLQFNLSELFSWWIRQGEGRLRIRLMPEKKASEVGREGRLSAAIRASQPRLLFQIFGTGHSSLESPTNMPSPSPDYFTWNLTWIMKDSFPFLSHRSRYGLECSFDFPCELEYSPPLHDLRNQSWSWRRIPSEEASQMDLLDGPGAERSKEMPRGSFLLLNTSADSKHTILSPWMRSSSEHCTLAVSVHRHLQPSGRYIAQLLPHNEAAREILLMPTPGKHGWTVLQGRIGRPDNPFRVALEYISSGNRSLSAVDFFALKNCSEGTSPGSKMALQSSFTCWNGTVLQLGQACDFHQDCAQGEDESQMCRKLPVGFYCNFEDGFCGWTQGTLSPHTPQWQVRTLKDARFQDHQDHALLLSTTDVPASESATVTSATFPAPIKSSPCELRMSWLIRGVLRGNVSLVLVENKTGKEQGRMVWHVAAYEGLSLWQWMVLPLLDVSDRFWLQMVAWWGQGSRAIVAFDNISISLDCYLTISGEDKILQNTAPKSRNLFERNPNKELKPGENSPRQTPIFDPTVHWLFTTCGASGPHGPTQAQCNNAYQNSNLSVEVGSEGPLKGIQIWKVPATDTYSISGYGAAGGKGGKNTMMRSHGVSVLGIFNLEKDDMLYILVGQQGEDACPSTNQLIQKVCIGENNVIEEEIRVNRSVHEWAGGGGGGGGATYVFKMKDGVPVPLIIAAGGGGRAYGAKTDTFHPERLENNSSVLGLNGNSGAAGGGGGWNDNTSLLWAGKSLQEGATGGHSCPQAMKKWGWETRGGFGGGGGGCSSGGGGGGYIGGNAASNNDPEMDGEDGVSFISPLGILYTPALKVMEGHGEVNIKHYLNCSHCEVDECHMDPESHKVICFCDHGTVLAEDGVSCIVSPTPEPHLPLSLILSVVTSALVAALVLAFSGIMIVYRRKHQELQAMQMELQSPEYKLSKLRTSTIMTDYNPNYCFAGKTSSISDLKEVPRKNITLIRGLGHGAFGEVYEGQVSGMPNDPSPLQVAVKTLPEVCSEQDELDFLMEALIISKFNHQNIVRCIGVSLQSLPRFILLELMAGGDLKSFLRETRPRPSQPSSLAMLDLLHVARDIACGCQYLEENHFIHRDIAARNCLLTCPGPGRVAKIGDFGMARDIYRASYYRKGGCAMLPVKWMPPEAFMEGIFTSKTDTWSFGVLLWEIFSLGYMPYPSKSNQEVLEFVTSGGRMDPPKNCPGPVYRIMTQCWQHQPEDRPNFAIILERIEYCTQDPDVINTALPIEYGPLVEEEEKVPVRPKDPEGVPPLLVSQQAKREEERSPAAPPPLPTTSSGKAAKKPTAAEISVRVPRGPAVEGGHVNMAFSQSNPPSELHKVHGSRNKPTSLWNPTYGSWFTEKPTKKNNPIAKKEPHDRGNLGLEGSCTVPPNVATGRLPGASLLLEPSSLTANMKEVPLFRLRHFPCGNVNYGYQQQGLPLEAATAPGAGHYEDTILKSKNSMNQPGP

Row | IC50 (Colo205) | IC50 (NCI-H929) | IC50 (human IR (hIR)) | IC50 (ALK) | IC50 (human IGF1R (hIGF1R)) | IC50 [1] | IC50 [2] | Compound
1 | 250 to 1000 nM | < 250 nM | – | – | – | – | – | CNC(=O)c1c(F)cccc1Nc1nc(Nc2cc3c(cc2OC)CCN3C(=O)CN(C)C)nc2[nH]ccc12 [Example 116, 2-[(2-{[1-(N,N-dimethylglycyl)-5-(methyloxy)-2,3-dihydro-1H-indol-6-yl]amino}-1H-pyrrolo[2,3-d]pyrimidin-4-yl)amino]-6-fluoro-N-methylbenzamide]
2 | 250 to 1000 nM | 250 to 1000 nM | 1.26 to 3.98 nM | 5.01 to 200 nM | 1.26 to 3.98 nM | – | – | COc1cc2c(cc1Nc1nc(Nc3cc(F)cc(F)c3C(N)=O)c3cc[nH]c3n1)N(C(=O)[C@@H]1CCCN1C)CC2 [Example 148, 2,4-difluoro-6-[(2-{[5-(methyloxy)-1-(1-methyl-L-prolyl)-2,3-dihydro-1H-indol-6-yl]amino}-1H-pyrrolo[2,3-d]pyrimidin-4-yl)amino]benzamide]
3 | 250 to 1000 nM | 250 to 1000 nM | 0.251 to 1 nM | 1.26 to 3.98 nM | 1.26 to 3.98 nM | – | – | COc1cc2c(cc1Nc1nc(Nc3cccc(F)c3C(N)=O)c3cc[nH]c3n1)NC(=O)CC2(C)C [Example 227, 2-[(2-{[4,4-dimethyl-6-(methyloxy)-2-oxo-1,2,3,4-tetrahydro-7-quinolinyl]amino}-1H-pyrrolo[2,3-d]pyrimidin-4-yl)amino]-6-fluorobenzamide]
4 | 250 to 1000 nM | 250 to 1000 nM | 1.26 to 3.98 nM | 1.26 to 3.98 nM | 1.26 to 3.98 nM | – | – | CNC(=O)c1c(F)cccc1Nc1nc(Nc2cc3c(cc2OC)CCN3C(=O)[C@@H](C)N(C)C)nc2[nH]ccc12 [Example 195, 2-[(2-{[1-(N,N-dimethyl-D-alanyl)-5-(methyloxy)-2,3-dihydro-1H-indol-6-yl]amino}-1H-pyrrolo[2,3-d]pyrimidin-4-yl)amino]-6-fluoro-N-methylbenzamide]
5 | < 250 nM | < 250 nM | – | 0.251 to 1 nM | – | – | – | COc1cc2c(cc1Nc1nc(Nc3cc(Cl)cc(F)c3C(N)=O)c3cc[nH]c3n1)N(C(=O)CN(C)C)CCC2 [Example 171, 4-chloro-2-[(2-{[1-(N,N-dimethylglycyl)-6-(methyloxy)-1,2,3,4-tetrahydro-7-quinolinyl]amino}-1H-pyrrolo[2,3-d]pyrimidin-4-yl)amino]-6-fluorobenzamide]
6 | 250 to 1000 nM | < 250 nM | – | 1.26 to 3.98 nM | – | – | – | CNC(=O)c1c(F)cc(Cl)cc1Nc1nc(Nc2cc3c(cc2OC)CCCN3C(=O)CN(C)C)nc2[nH]ccc12 [Example 172, 4-chloro-2-[(2-{[1-(N,N-dimethylglycyl)-6-(methyloxy)-1,2,3,4-tetrahydro-7-quinolinyl]amino}-1H-pyrrolo[2,3-d]pyrimidin-4-yl)amino]-6-fluoro-N-methylbenzamide]
7 | 250 to 1000 nM | < 250 nM | 1.26 to 3.98 nM | 1.26 to 3.98 nM | 1.26 to 3.98 nM | – | – | CNC(=O)c1c(Nc2nc(Nc3cc4c(cc3OC)CCN4C(=O)CN(C)C)nc3[nH]ccc23)ccc(F)c1F [Example 160, 6-[(2-{[1-(N,N-dimethylglycyl)-5-(methyloxy)-2,3-dihydro-1H-indol-6-yl]amino}-1H-pyrrolo[2,3-d]pyrimidin-4-yl)amino]-2,3-difluoro-N-methylbenzamide]
8 | > 1000 nM | 250 to 1000 nM | – | – | 5.01 to 200 nM | – | – | CNC(=O)c1c(F)cccc1Nc1nc(Nc2cc3c(cc2C)CCCN3C(=O)CN(C)C)nc2[nH]ccc12 [Example 247, 2-[(2-{[1-(N,N-dimethylglycyl)-6-methyl-1,2,3,4-tetrahydro-7-quinolinyl]amino}-1H-pyrrolo[2,3-d]pyrimidin-4-yl)amino]-6-fluoro-N-methylbenzamide]
9 | > 1000 nM | 250 to 1000 nM | 5.01 to 158 nM | 1.26 to 3.98 nM | 5.01 to 200 nM | – | – | COc1cc2c(cc1Nc1nc(Nc3ccc(F)c(F)c3C(=O)NC(C)C)c3cc[nH]c3n1)N(C(=O)CN(C)C)CCC2 [Example 164, 6-[(2-{[1-(N,N-dimethylglycyl)-6-(methyloxy)-1,2,3,4-tetrahydro-7-quinolinyl]amino}-1H-pyrrolo[2,3-d]pyrimidin-4-yl)amino]-2,3-difluoro-N-(1-methylethyl)benzamide]
10 | 250 to 1000 nM | < 250 nM | 0.251 to 1 nM | – | 0.251 to 1 nM | – | – | CNC(=O)c1c(F)cccc1Nc1nc(Nc2cc3c(cc2OC)C(C)(C)CCN3C(=O)CN(C)C)nc2[nH]ccc12 [Example 226, 2-[(2-{[1-(N,N-dimethylglycyl)-4,4-dimethyl-6-(methyloxy)-1,2,3,4-tetrahydro-7-quinolinyl]amino}-1H-pyrrolo[2,3-d]pyrimidin-4-yl)amino]-6-fluoro-N-methylbenzamide]
11 | 250 to 1000 nM | – | 1.26 to 3.98 nM | – | 1.26 to 3.98 nM | 100 to 500 nM | 100 to 500 nM | CCc1cc(N2CCN(C(C)C)CC2)ccc1Nc1nc(Nc2cc(F)ccc2C(N)=O)c2cc[nH]c2n1 [Example 69, 2-{[2-({2-ethyl-4-[4-(1-methylethyl)-1-piperazinyl]phenyl}amino)-1H-pyrrolo[2,3-d]pyrimidin-4-yl]amino}-4-fluorobenzamide]
12 | < 250 nM | – | – | 1.26 to 3.98 nM | 5.01 to 200 nM | > 500 nM | > 500 nM | COc1cc(N2CCN(C(C)C)CC2)ccc1Nc1nc(Nc2ccc(F)cc2C(=O)NCCO)c2cc[nH]c2n1 [Example 66, 5-fluoro-N-(2-hydroxyethyl)-2-[(2-{[4-[4-(1-methylethyl)-1-piperazinyl]-2-(methyloxy)phenyl]amino}-1H-pyrrolo[2,3-d]pyrimidin-4-yl)amino]benzamide]
13 | 250 to 1000 nM | – | – | 1.26 to 3.98 nM | 1.26 to 3.98 nM | 100 to 500 nM | 100 to 500 nM | CNC(=O)c1cc(F)ccc1Nc1nc(Nc2ccc(N3CCN(C(C)C)CC3)cc2OC)nc2[nH]ccc12 [Example 65, 5-fluoro-N-methyl-2-[(2-{[4-[4-(1-methylethyl)-1-piperazinyl]-2-(methyloxy)phenyl]amino}-1H-pyrrolo[2,3-d]pyrimidin-4-yl)amino]benzamide]
14 | – | – | 0.251 to 1 nM | 0.251 to 1 nM | 0.251 to 1 nM | < 100 nM | < 100 nM | COc1cc(C)c(NC(=O)CN(C)C)cc1Nc1nc(Nc2cccc(F)c2C(N)=O)c2cc[nH]c2n1 [Example 257, 2-[(2-{[5-[(N,N-dimethylglycyl)amino]-4-methyl-2-(methyloxy)phenyl]amino}-1H-pyrrolo[2,3-d]pyrimidin-4-yl)amino]-6-fluorobenzamide]
15 | 250 to 1000 nM | – | 1.26 to 3.98 nM | – | 1.26 to 3.98 nM | < 100 nM | < 100 nM | COc1cc(N2CCOC[C@@H]2C)ccc1Nc1nc(Nc2cc(F)cc(F)c2C(N)=O)c2cc[nH]c2n1 [Example 90, 2,4-difluoro-6-[(2-{[4-[(3S)-3-methyl-4-morpholinyl]-2-(methyloxy)phenyl]amino}-1H-pyrrolo[2,3-d]pyrimidin-4-yl)amino]benzamide]
